Test results taken from US20250241890A1, “1,4-DIUREAS AND 1,4-DITHIOUREAS AND USES THEREOF” (Purdue Research Foundation, priority 2024, published 2025).

What was measured:
Type in all cases: biochemical
tau isoform 0N4R = target: T1, tau isoform 0N4R (Homo sapiens, UniProt P10636); test: PICUP assay of tau 0N4R oligomer formation; details: tau 10 μM, compound 50 μM (molar ratio 1:5)
T1 construct: made in house; host or cells: Rosetta BL21 E. coli
Procedure: FIG. 5. […] Compounds 1, 2, and 8 were selected for their α-syn anti-oligomerization activity. Compound 7 was used as di-urea counterpart of compound 8, as compound 1 is the di-urea counterpart of compound 2, a dithiourea derivative. Tau (10 μM) was cross-linked (PICUP assay) with different concentrations of the di-substituted aminoindolyl derivatives at 50 μM (molar ratio 1:5).
Chemical and peptide source. Dimethylsulfoxide (DMSO) and thioflavin-T (ThT) were purchased from Alfa Aesar (Ward Hill, MA). Recombinant α-synuclein (α-syn) was procured from rPeptide (WatKinsville, GA). The recombinant p-tau isoform 1N4R was prepared as published previously (Fortin et al. 2021, Sui et al. 2015, Liu et al. 2020). Concerning the preparation of tau 0N4R, a bacterial expression plasmid consisting of the vector pET30a carrying a cDNA encoding the human Tau 0N4R isoform was a kind gift of Dr. Benjamin Wolozin (Boston University). E. coli stock (Rosetta BL21 E. coli (CamR) containing pET30a [0N4R tau wt] (KanR)) was grown in LB medium supplemented with kanamycin (50 μg/mL) and chloramphenicol (50 μg/mL). […] General Characterizations. ^1H and ^13C {1H} NMR spectra were recorded using a 500 MHz Bruker instrument working at a frequency of 500 MHz for ^1H and at 126 MHz for ^13C. […] Thioflavin fluorescence assays. Thioflavin fluorescence assays were used to monitor fibril formation of commercial recombinant α-syn at a final concentration of 2 μM and treated with control DMSO and different compounds. […] Kinetics of fibril formation have been performed using ThT as published previously.^6, 12, 13, 24 The fluorescence emission experiments were performed with the excitation and emission wavelengths set at 440 and 485 nm, respectively, with a Synergy HT multi-mode microplate reader (BioTek, Winooski, VT). Samples were measured in three replicates. […] For each time point, arbitrary units of fluorescence were calculated from the mean values normalized against the maximum value. The percentage of fluorescence intensity at the plateau phase in Table 1 was expressed as mean #SEM. […]

p-tau isoform 1N4R = target: T2, p-tau isoform 1N4R (Homo sapiens, UniProt P10636); test: PICUP assay of p-tau 1N4R oligomer formation; details: p-tau 4 μM, compound 50 μM (molar ratio 1:12.5)
T2 construct: made in house
T2 sequence (P10636 1-412 isoform P10636-7): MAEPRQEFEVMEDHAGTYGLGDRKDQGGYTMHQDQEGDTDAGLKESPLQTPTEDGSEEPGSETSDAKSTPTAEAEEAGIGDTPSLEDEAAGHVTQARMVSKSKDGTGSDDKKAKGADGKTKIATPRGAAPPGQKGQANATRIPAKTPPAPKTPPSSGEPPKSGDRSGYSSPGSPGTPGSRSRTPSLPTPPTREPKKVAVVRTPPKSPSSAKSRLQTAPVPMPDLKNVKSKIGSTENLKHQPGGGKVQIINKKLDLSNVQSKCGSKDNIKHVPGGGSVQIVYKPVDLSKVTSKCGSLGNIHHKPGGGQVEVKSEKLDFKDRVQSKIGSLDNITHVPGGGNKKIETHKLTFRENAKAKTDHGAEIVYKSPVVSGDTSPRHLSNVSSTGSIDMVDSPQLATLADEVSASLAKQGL

α-syn fibrils = target: T3, α-syn fibrils (Homo sapiens, UniProt P37840); test: Transmission electron microscopy (TEM) of α-syn fibrils; details: α-syn 2 μM, compound 100 μM, ~22 hours at 37° C.
T3 construct: purchased rPeptide (Watkinsville, GA)

T1 sequence (P10636 1-383 isoform P10636-6): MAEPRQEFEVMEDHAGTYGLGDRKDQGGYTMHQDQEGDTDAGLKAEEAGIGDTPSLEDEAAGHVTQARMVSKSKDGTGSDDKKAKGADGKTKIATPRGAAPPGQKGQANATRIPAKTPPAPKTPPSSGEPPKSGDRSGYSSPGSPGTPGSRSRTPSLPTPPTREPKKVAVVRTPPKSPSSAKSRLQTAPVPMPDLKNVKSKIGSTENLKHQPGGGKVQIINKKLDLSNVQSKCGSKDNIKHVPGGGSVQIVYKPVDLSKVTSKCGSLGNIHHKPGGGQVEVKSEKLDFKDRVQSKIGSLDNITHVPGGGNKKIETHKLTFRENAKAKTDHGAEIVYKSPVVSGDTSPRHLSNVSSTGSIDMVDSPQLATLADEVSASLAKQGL

Row | effect on α-syn fibrils by TEM (α-syn fibrils) | SMILES | effect on tau 0N4R oligomer formation by PICUP (tau isoform 0N4R) | effect on p-tau 1N4R oligomer formation by PICUP (p-tau isoform 1N4R)
1 |  | S=C(Nc1ccc(NC(=S)Nc2cccc3cc[nH]c23)cc1)Nc1cccc2cc[nH]c12 [Compound 8, 3-(1H-indol-7-yl)-1-(4-{[(1H-indol-7-yl)carbamothioyl]amino}phenyl)thiourea] | None of these compounds were able to reduce the tau 0N4R oligomer formation | 
2 | reduced α-syn fibril formation | S=C(Nc1ccc(NC(=S)Nc2cccc3[nH]ccc23)cc1)Nc1cccc2[nH]ccc12 [Compound 2, 3-(1H-indol-4-yl)-1-(4-{[(1H-indol-4-yl)carbamothioyl]amino}phenyl)thiourea] | None of these compounds were able to reduce the tau 0N4R oligomer formation | failed to inhibit p-tau oligomer formation
